Results from US20240150335A1, “FUSED RING DERIVATIVES CONTAINING 1,4-OXAZEPANE” (MEDSHINE DISCOVERY INC., priority 2021, published 2024).

Columns and labels:
[1] = target: Recombinant human cathepsin C/DPP1; assay: Inhibition effect test of DPP1 enzyme activity; type: biochemical; settings: recombinant human cathepsin C/DPP1, Gly-Arg-AMC substrate 12.5 μM, 25° C. 60 minutes; read-out: IC50, inhibitory activity on DPP1 enzyme
Experimental: Experimental Example 1: Inhibition Effect Test of DPP1 Enzyme Activity
Recombinant human cathepsin C/DPP1 was purchased from R&D Systems;
Recombinant human cathepsin L (rhCathepsin L) was purchased from R&D Systems;
Gly-Arg-AMC (hydrochloride) was purchased from CAYMAN CHEMICAL COMPANY.
1× activation buffer: 5 mM DTT 0.01% (V/V) Triton X-100 (preparation for current use);
1× assay buffer: 50 mM NaCl 5 mM DTT 0.01% (V/V) Triton X-100 (preparation for current use);
1× activation buffer was used to dilute recombinant human cathepsin C/DPP1 enzyme and recombinant human cathepsin L (rhCathepsin L) enzyme to concentrations of 2 ng/μL and 0.4 ng/μL, respectively; equal volume of two working solutions of enzyme was taken, mixed well and incubated at 25° C. for 60 minutes;
the compounds to be tested were 5-fold diluted with a multi-channel pipette to the 8th concentration, i.e., diluted from 1 mM to 12.8 nM. Then 1× experimental buffer was used to dilute each compound to be tested by gradient into a 4% DMSO working solution. The working solution was added to corresponding wells for 5 μL/well, and duplicate experiment was set. The mixture was centrifuged at 1000 rpm for 1 minute;
5 μL/well of the enzyme mixture after incubation was taken and added to the white microwell plate. At this time, the amount of DPP1 enzyme in each well was 5 ng; 1× experimental buffer in 5 μL/well was added to the blank control well;
Gly-Arg-AMC (hydrochloride) was diluted to 25 μM with 1× assay buffer. The diluted mixture in 10 μL/well was added to a white microwell plate. The substrate concentration was 12.5 μM at this time, and the microplate was centrifuged in a centrifuge at 1000 rpm for 1 minute. […] After centrifugation, the microplate was covered with membrane and incubated at 25° C. for 60 minutes;
after incubation, fluorescence detection was performed using a multi-label analyzer with an excitation wavelength of 360 nm and an emission wavelength of 460 nm.
Using the equation (Sample−Min)/(Max−Min)×100% to convert the raw data into enzyme activity, the IC50 value might be obtained by curve fitting with four parameters (obtained by “log (inhibitor) vs. response—Variable slope” mode in GraphPad Prism).
Max: Contains recombinant human cathepsin C/DPP1, recombinant human cathepsin L (rhCathepsin L), and Gly-Arg-AMC (hydrochloride)
Min: No recombinant human cathepsin C/DPP1 and recombinant human cathepsin L (rhCathepsin L)

[2] = target: DPP1 of U937 cells (Homo sapiens (Human), UniProt P53634); assay: Activity test of inhibiting DPP1 in U937 cells; type: cell-based; settings: Gly-Phe-AFC probe, read-out: IC50, inhibitory activity on DPP1 of U937 cells
Experimental: Experimental Example 2: Activity Test of Inhibiting DPP1 in U937 Cells
Experimental Materials: • 1) Experimental reagents and consumables
The cell plate was placed in a carbon dioxide incubator for 1 day; • (3) after incubation for 1 hour, 100 μM Gly-Phe-AFC probe solution was added thereto, that is, 60 mM Gly-Phe-AFC probe stock solution was diluted with culture medium to 500 μM working solution; the working solution in 10 μL per well was transferred into the cell plate, and the cell plate was incubated in a carbon dioxide incubator for 1 hour;
3) the plate was read, and the data were analyzed: • (1) plate reading: after the cell incubation was completed, the cell plate was taken out, and the plate was read on Victor Nivo.
Using the equation (Sample−Min)/(Max−Min)×100% to convert the raw data into inhibition rate, the IC50 value might be obtained by curve fitting with four parameters (obtained by “log (inhibitor) vs. response—Variable slope” mode in GraphPad Prism).

DPP1 of U937 cells, sequence (P53634 25-134): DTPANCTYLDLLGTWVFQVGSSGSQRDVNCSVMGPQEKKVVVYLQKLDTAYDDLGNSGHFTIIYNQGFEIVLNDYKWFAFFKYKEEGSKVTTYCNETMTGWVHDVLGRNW
DPP1 of U937 cells, sequence (P53634 231-394): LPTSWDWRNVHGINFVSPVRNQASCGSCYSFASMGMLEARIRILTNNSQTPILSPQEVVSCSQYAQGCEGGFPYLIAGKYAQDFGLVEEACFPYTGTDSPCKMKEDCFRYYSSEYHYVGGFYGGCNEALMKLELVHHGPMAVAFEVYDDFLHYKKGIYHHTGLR
DPP1 of U937 cells, sequence (P53634 395-463): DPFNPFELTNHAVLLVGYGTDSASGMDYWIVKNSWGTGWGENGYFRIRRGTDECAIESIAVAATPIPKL

Structure (SMILES)	IC50 [1]	IC50 [2]
Cn1ncc2ccc(-c3ccc(C[C@@H](C#N)NC(=O)[C@@H]4CNCCCO4)cc3)cc21 [Compound 2]	26.8 nM	8.95 nM
Cn1nc(F)c2ccc(-c3ccc(C[C@H](C#N)NC(=O)[C@@H]4CNCCCO4)c(F)c3)cc21 [Compound 18]	1.23 nM	5.43 nM
N#C[C@@H](Cc1ccc(-c2cc(F)c3cn[nH]c3c2)cc1F)NC(=O)[C@@H]1CNCCCO1 [Compound 19]	4.55 nM	8.7 nM
Cc1cc(-c2ccc3cnn(C)c3c2)ccc1C[C@H](C#N)NC(=O)[C@@H]1CNCCCO1 [Compound 17]	22.5 nM	
N#C[C@@H](Cc1ccc(-c2ccc3cnn(C4CCNCC4)c3c2)cc1F)NC(=O)[C@@H]1CNCCCO1 [Compound 22]	0.76 nM	
CC(C)n1ncc2ccc(-c3ccc(C[C@@H](C#N)NC(=O)[C@@H]4CNCCCO4)cc3)cc21 [Compound 9]	14 nM	
Cn1nnc2ccc(-c3ccc(C[C@@H](C#N)NC(=O)[C@@H]4CNCCCO4)cc3)cc21 [Compound 4]	10.8 nM	1.32 nM
CN1CCOc2ccc(-c3ccc(C[C@H](C#N)NC(=O)[C@@H]4CNCCCO4)c(F)c3)cc21 [Compound 15]	3.65 nM	
CN1CCC(n2ncc3ccc(-c4ccc(C[C@H](C#N)NC(=O)[C@@H]5CNCCCO5)c(F)c4)cc32)CC1 [Compound 24]	1 nM	3.12 nM
CN1Cc2cc(-c3ccc(C[C@@H](C#N)NC(=O)[C@@H]4CNCCCO4)cc3)ccc2C1=O [Compound 5]	28.3 nM	9.32 nM
Cn1nnc2ccc(-c3ccc(C[C@@H](C#N)NC(=O)[C@@H]4CNCCCO4)c(F)c3)cc21 [Compound 7]	2.52 nM	2.49 nM
N#C[C@@H](Cc1ccc(-c2cnc3cc[nH]c3c2)cc1F)NC(=O)[C@@H]1CNCCCO1 [Compound 21]	17.3 nM	9.27 nM
N#C[C@@H](Cc1ccc(-c2ccc3nccn3c2)cc1F)NC(=O)[C@@H]1CNCCCO1 [Compound 14]	28.1 nM	2.79 nM
Cn1ncc2ccc(-c3ccc(C[C@H](C#N)NC(=O)[C@@H]4CNCCCO4)c(Cl)c3)cc21 [Compound 16]	9.18 nM	
N#C[C@H](Cc1ccc(-c2ccc3nccn3c2)cc1F)NC(=O)[C@@H]1CNCCCO1 [Compound 13]	20.4 nM	6.33 nM
CC(C)n1ncc2ccc(-c3ccc(C[C@@H](C#N)NC(=O)[C@@H]4CNCCCO4)c(F)c3)cc21 [Compound 10]	4.39 nM	8.53 nM
N#C[C@H](Cc1ccc(-c2ccc3cnn(C4CCOCC4)c3c2)cc1F)NC(=O)[C@@H]1CNCCCO1 [Compound 12]	2.38 nM	1.81 nM
